# According to the supplement of paper PMC6045584:
# ± gives the standard deviation of the averaged measurements.
# How the values were obtained:
# Assay in all cases: surviving fraction relative to DMSO-only wells; higher = less growth inhibition
# Conditions in all cases: exposure time: 5 days
# [1] = compound: CC(=O)NCC(=O)N1[C@@H]2CC[C@H]1c1ccc(Nc3ncc(C(F)(F)F)c(NC4CCC4)n3)cc12
# Summary of the method: (§1)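 Continuous five-day exposure to inhibitors at 0.5, 1, 5, 10, 50, 100, 500 and 1000 nM started 24 hours after log-phase tumour cell lines were seeded at 250–500 cells per well in 384-well plates. Luminescence was read after 10 minutes at room temperature. Viability is given as surviving fraction, meaning CellTiter-Glo luminescence normalised to the median of DMSO-only wells.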
# PACLITAXEL = compound: CC(=O)O[C@H]1C(=O)[C@@]2(C)[C@H]([C@H](OC(=O)c3ccccc3)[C@]3(O)C[C@H](OC(=O)[C@H](O)[C@@H](NC(=O)c4ccccc4)c4ccccc4)C(C)=C1C3(C)C)[C@]1(OC(C)=O)CO[C@@H]1C[C@@H]2O [PACLITAXEL]
# Summary of the method: as §1
# [2] = compound: CC(=O)c1c(C)c2cnc(Nc3ccc(N4CCNCC4)cn3)nc2n(C2CCCC2)c1=O
# Summary of the method: as §1
# CAMPTOTHECIN = compound: CC[C@@]1(O)C(=O)OCc2c1cc1n(c2=O)Cc2cc3ccccc3nc2-1 [CAMPTOTHECIN]
# Summary of the method: as §1
# YM155 = compound: COCC[n+]1c2c(n(Cc3cnccn3)c1C)C(=O)c1ccccc1C2=O [YM155]
# Summary of the method: as §1
test system,measurement,setting,value
LM7 BONE,surviving fraction,[1]; 0.5 nM,0.965 ± 0.032
same,surviving fraction,[1]; 1 nM,0.951 ± 0.058
same,surviving fraction,[1]; 5 nM,1.04 ± 0.051
same,surviving fraction,[1]; 10 nM,1.02 ± 0.011
same,surviving fraction,[1]; 50 nM,0.921 ± 0.067
same,surviving fraction,[1]; 100 nM,0.642 ± 0.037
same,surviving fraction,[1]; 500 nM,0.25 ± 0.024
same,surviving fraction,[1]; 1000 nM,0.13 ± 0.007
same,surviving fraction,PACLITAXEL; 0.5 nM,0.951 ± 0.061
same,surviving fraction,PACLITAXEL; 1 nM,0.825 ± 0.034
same,surviving fraction,PACLITAXEL; 5 nM,0.123 ± 0.019
same,surviving fraction,PACLITAXEL; 10 nM,0.092 ± 0.003
same,surviving fraction,PACLITAXEL; 50 nM,0.0847 ± 0.0068
same,surviving fraction,PACLITAXEL; 100 nM,0.075 ± 0.0044
same,surviving fraction,PACLITAXEL; 500 nM,0.0723 ± 0.0015
same,surviving fraction,PACLITAXEL; 1000 nM,0.0703 ± 0.004
same,surviving fraction,[2]; 0.5 nM,0.997 ± 0.1
same,surviving fraction,[2]; 1 nM,0.98 ± 0.14
same,surviving fraction,[2]; 5 nM,1.108 ± 0.011
same,surviving fraction,[2]; 10 nM,1.05 ± 0.032
same,surviving fraction,[2]; 50 nM,1.06 ± 0.093
same,surviving fraction,[2]; 100 nM,1.09 ± 0.046
same,surviving fraction,[2]; 500 nM,0.999 ± 0.12
same,surviving fraction,[2]; 1000 nM,1.02 ± 0.0049
same,surviving fraction,CAMPTOTHECIN; 0.5 nM,0.73 ± 0.032
same,surviving fraction,CAMPTOTHECIN; 1 nM,0.691 ± 0.08
same,surviving fraction,CAMPTOTHECIN; 5 nM,0.422 ± 0.0056
same,surviving fraction,CAMPTOTHECIN; 10 nM,0.232 ± 0.015
same,surviving fraction,CAMPTOTHECIN; 50 nM,0.145 ± 0.018
same,surviving fraction,CAMPTOTHECIN; 100 nM,0.0813 ± 0.0095
same,surviving fraction,CAMPTOTHECIN; 500 nM,0.024 ± 0.0035
same,surviving fraction,CAMPTOTHECIN; 1000 nM,0.0243 ± 0.00058
same,surviving fraction,YM155; 0.5 nM,0.943 ± 0.029
same,surviving fraction,YM155; 1 nM,0.889 ± 0.053
same,surviving fraction,YM155; 5 nM,0.433 ± 0.018
same,surviving fraction,YM155; 10 nM,0.201 ± 0.019
same,surviving fraction,YM155; 50 nM,0.039 ± 0.0056
same,surviving fraction,YM155; 100 nM,0.0237 ± 0.00058
same,surviving fraction,YM155; 500 nM,0.0197 ± 0.00058
same,surviving fraction,YM155; 1000 nM,0.025 ± 0.0017
